Assay results published in patent US11573281B2, “Magnetic resonance fingerprinting method for recordings with a contrast agent” (Bayer Aktiengesellschaft, priority 2018, dated 2023).
Read-outs that look alike come from different tables or passages of the source.

Key:
[1] = molar relaxivity of Gd-EOB-DTPA in bile; format: physicochemical
[2] = molar relaxivity of Gd-EOB-DTPA in urine; format: physicochemical
[3] = molar relaxivity of Gd-EOB-DTPA in plasma; format: physicochemical; details: plasma vs bile
[4] = molar relaxivity of Gd-EOB-DTPA in blood; format: physicochemical
[5] = molar relaxivity of Gd-EOB-DTPA in liver tissue; format: physicochemical; details: for molar relaxivity: Liver tissue
[6] = Water, Rohrer et al., cited from earlier work
[7] = Plasma, Rohrer et al., cited from earlier work
[8] = Blood, cited from earlier work
[9] = Liver tissue, 0.47 T; Schuhmann-Giampieri et al.; cited from earlier work

molar relaxivity ([1]; 1.41 T): 5.6 ± 0.3 (s·mmol/L)^−1
molar relaxivity ([1]; 1.5 T): 5.6 ± 0.4 (s·mmol/L)^−1
molar relaxivity ([1]; 3 T): 5.6 ± 0.3 (s·mmol/L)^−1
molar relaxivity ([2]; 1.41 T): 5.5 ± 0.1 (s·mmol/L)^−1
molar relaxivity ([2]; 1.5 T): 5.5 ± 0.2 (s·mmol/L)^−1
molar relaxivity ([2]; 3 T): 5.6 ± 0.1 (s·mmol/L)^−1
molar relaxivity in plasma compared with bile [3]: significantly higher
molar relaxivity ([4]; 1.41 T): 8.1 ± 0.2 (s·mmol/L)^−1
molar relaxivity ([4]; 1.5 T): 8.3 ± 0.3 (s·mmol/L)^−1
molar relaxivity ([4]; 3 T): 7.2 ± 0.1 (s·mmol/L)^−1
molar relaxivity ([5]; 1.41 T): 14.0 ± 2.8 (s·mmol/L)^−1
molar relaxivity ([5]; 1.5 T): 16.4 ± 3.1 (s·mmol/L)^−1
molar relaxivity ([5]; 3 T): 13.4 ± 4.0 (s·mmol/L)^−1
molar relaxivity in liver cells (hepatocytes) compared with plasma ([5]; liver cells (hepatocytes) vs plasma): significantly higher
SMILES: CCOc1ccc(CC(CN(CCN(CC(=O)[O-])CC(=O)[O-])CC(=O)[O-])N(CC(=O)[O-])CC(=O)[O-])cc1.[Gd+3].[Na+].[Na+] (centres unmarked) [Gd-EOB-DTPA, gadolinium ethoxybenzyl diethylenetriaminepentaacetic acid]
molar relaxivity ([6]; 0.47 T): 5.3^(1) (s·mmol/L)^−1
molar relaxivity ([6]; 1.5 T): 4.7^(1) (s·mmol/L)^−1
molar relaxivity ([6]; 3 T): 4.3^(1) (s·mmol/L)^−1
molar relaxivity ([7]; 0.47 T): 8.7^(1) (s·mmol/L)^−1
molar relaxivity ([7]; 1.5 T): 6.9^(1) (s·mmol/L)^−1
molar relaxivity ([7]; 3 T): 6.2^(1) (s·mmol/L)^−1
molar relaxivity ([8]; 0.47 T, Schuhmann-Giampieri et al.): 11.0^(2) (s·mmol/L)^−1
molar relaxivity ([8]; 1.5 T, Rohrer et al.): 7.3 (s·mmol/L)^−1
molar relaxivity [9]: 16.6^(2) (s·mmol/L)^−1
